This is an account of results in patent US12319677B2, “Process for the production of 5-(4-((2S,5S)-5-(4-chlorobenzyl)-2-methyl-morpholino)piperidin-1-yl)-1H-1,2,4-triazol-3-amine” (Molecure S.A., priority 2019, dated 2025).

Several values for one entry are separate records, joined by “and”; a condition that tells them apart may be missing. Equal entries are not always repeated.

Common to all, as to format: physicochemical
Data set [1] is described as follows: Stability of process intermediates (in methanol / as free base). From the text: Under conditions described in the patent application WO 2017/037670 (sodium triacetoxy-borohydride, acetic acid and 1,2-dichloroethane), the compound of formula 11 reacts with N-Boc-4-piperidinone leading to a by-product of formula 12 which is observed in crude compound of formula 3. The impurity of formula 12 can be removed by the careful purification on silica gel but such an approach is unacceptable on a kilo-scale. […] Since the compound of formula 11 can be easily removed by crystallization after removal of the tert-butoxycarbonyl protection group, the present invention relates to a method for the synthesis of the compound of formula 5 with no impurity of formula 13. Moreover, the conditions described in this application unobviously allow one to use hydrochloride salt of the compound of formula 2 as the starting material which can facilitate the process. […]
Due to the fact that the compound of formula 6 is not stable in methanol, it is not possible to obtain the hydrated form II directly from the compound 6 as for hydrated form I of the compound of formula 1. […] The XPRD data for the dried material and data calculated from X-ray structure differ. […]

The nature of data set [2]: Solid-state stability of the hydrated forms upon drying. To be noted: leads to amorphous form. From the text:
Due to the fact that the compound of formula 6 is not stable in methanol, it is not possible to obtain the hydrated form II directly from the compound 6 as for hydrated form I of the compound of formula 1. Both hydrated forms I and II of the compound of formula 1 are unstable, leading to amorphous form upon drying. The XPRD data for the dried material and data calculated from X-ray structure differ. […] The amorphous form of the compound of formula 1 can be prepared in a more convenient way by melting the anhydrous form or hydrated form I or II of the compound of formula 1 followed by cooling off the material to ambient temperature. After grinding the glass-like solid, […] of the compound of formula 1 is an off-white solid.

The nature of data set [3]: Particle size distribution (PSD), Malvern Mastersizer 2000 in Isopar G. Particulars: three batches of the anhydrous form made by method D. An excerpt: The synthesis of the compound of formula 1 hydrated form I followed by the synthesis of the compound of the formula 1 anhydrous form has a significant advantage as compared to the synthesis of the compound of formula 1 described in WO 2017/037670. Under new conditions, the precipitation of the compound of the formula 1 hydrated form I unobviously allows to control the amount of residual hydrazine which is considered as a genotoxic impurity and must be controlled at ppm levels. The method outlined in the previous paragraph was used for the synthesis of three batches of the anhydrous form of the compound of formula 1. This material was carefully analyzed for purity, residual hydrazine level and particle size distribution.
PSD data were recoded with Malvern Mastersizer 2000 in Isopar G.

Turning to `CS/C(=N\C#N)N1CCC(N2C[C@H](C)OC[C@@H]2Cc2ccc(Cl)cc2)CC1` [compound 6, methyl (Z)-4-((2S,5S)-5-(4-chlorobenzyl)-2-methylmorpholino)-N-cyanopiperidine-1-carbimidothioate], the Stability in methanol result in data set [1] (in methanol) is “not stable”.
In the case of `C[C@H]1CN[C@@H](Cc2ccc(Cl)cc2)CO1` [compound 2, (2S,5S)-5-(4-chlorobenzyl)-2-methylmorpholine], the “Stability of free base” value in data set [1] (free base (oil), must be kept as a salt to prevent decomposition) was “limited stability”.
As to `C[C@H]1CN(C2CCN(c3nc(N)n[nH]3)CC2)[C@@H](Cc2ccc(Cl)cc2)CO1` [1, hydrated form I, 5-(4-((2S,5S)-5-(4-chlorobenzyl)-2-methylmorpholino)piperidin-1-yl)-1H-1,2,4-triazol-3-amine], the “Stability of crystalline form” value in data set [2] was “unstable”.
For `C[C@H]1CN(C2CCN(c3nc(N)n[nH]3)CC2)[C@@H](Cc2ccc(Cl)cc2)CO1` [1, anhydrous form, 5-(4-((2S,5S)-5-(4-chlorobenzyl)-2-methylmorpholino)piperidin-1-yl)-1H-1,2,4-triazol-3-amine], in data set [3], the “Particle size distribution D10” value was 152 μm and 202 μm and 154 μm; the “Particle size distribution D50” value was 255 μm and 357 μm and 284 μm; the “Particle size distribution D90” value is 403 μm and 577 μm and 485 μm.
